# According to patent publication US9730446B2, “Herbicidal compositions comprising 4-amino-3-chloro-6-(4-chloro-2-fluoro-3-methoxyphenyl)pyridine-2-carboxylic acid or a derivative thereof and propyzamide” (Dow AgroSciences LLC, priority 2013, dated 2017):
# Legend:
# Type in all cases: in vivo
# [1] = system: winter oilseed rape; assay: Field trial, visual crop injury ratings; conditions: varying rates, crop Growth Stage 39-50, 32, 49, and 74 days after treatment, in each case
# Experimental: (§1) Multiple small plot research experiments were conducted to evaluate efficacy and tolerance of winter oilseed rape to compositions described herein. Typical small plots (2-4×4-10 meters (m)) were used in growers' fields under natural conditions with normal commercial cultural practices. Backpack sprayers were used to apply all treatments based on unit area. The methyl ester of formula (I) and propyzamide were tested alone and in combination at varying rates. Application water volume was 150 L/ha. Crop stage was at Growth Stage 39-50. Visual crop injury ratings were collected 32, 49, and 74 days after treatment. […] The reported values are means.
# [2] = system: ABUTH Abutilon theophrasti Medik. (velvetleaf); assay: Postemergent herbicidal activity, greenhouse; conditions: foliar, 14 d
# Experimental: (§2) Evaluation of Postemergent Herbicidal Activity. Seeds or nutlets of the desired test plant species were planted in Sun Gro Metro-Mix® 360 planting mixture, which typically has a pH of 6.0 to 6.8 and an organic matter content of about 30 percent, in plastic pots with a surface area of 64 square centimeters (cm^2). […] The plants were grown for 7-21 days (d) in a greenhouse with an approximate 15 hour (h) photoperiod which was maintained at about 23-29° C. during the day and 22-28° C. during the night. Nutrients and water were added on a regular basis and supplemental lighting was provided with overhead metal halide 1000-Watt lamps as necessary. The plants were employed for testing when they reached the first or second true leaf stage.
# (§3) A weighed amount, determined by the highest rate to be tested, of each test compound was placed in a 25 milliliter (mL) glass vial and was dissolved in 4 mL of a 97:3 volume per volume (v/v) mixture of acetone and dimethyl sulfoxide (DMSO) to obtain concentrated stock solutions. […] The concentrated stock solutions obtained were diluted with 20 mL of an aqueous mixture containing acetone, water, isopropyl alcohol, DMSO, Atplus 411F crop oil concentrate, and Triton® X-155 surfactant in a 48.5:39:10:1.5:1.0:0.02 v/v ratio to obtain spray solutions containing the highest application rates. Additional application rates were obtained by serial dilution of 12 mL of the high rate solution into a solution containing 2 mL of a 97:3 v/v mixture of acetone and DMSO and 10 mL of an aqueous mixture containing acetone, water, isopropyl alcohol, DMSO, Atplus 411F crop oil concentrate, and Triton X-155 surfactant in a 48.5:39:10:1.5:1.0:0.02 v/v ratio to obtain 1/2×, 1/4×, 1/8× and 1/16× rates of the high rate. Compound requirements are based upon a 12 mL application volume at a rate of 187 liters per hectare (L/ha). Formulated compounds were applied to the plant material with an overhead Mandel track sprayer equipped with 8002E nozzles calibrated to deliver 187 L/ha over an application area of 0.503 square meters (m^2) at a spray height of 18 inches (43 cm) above the average plant canopy height. Control plants were sprayed in the same manner with the solvent blank.
# (§4) Treatments consisted of the methyl ester of 4-amino-3-chloro-6-(4-chloro-2-fluoro-3-methoxyphenyl)pyridine-2-carboxylic acid (Cmpd 1) as technical grade material and propyzamide (Kerb 50 W) alone and in combination.
# (§5) The treated plants and control plants were placed in a greenhouse as described above and watered by subirrigation to prevent wash-off of the test compounds. After 14 d, the condition of the test plants as compared with that of the untreated plants was determined visually and scored on a scale of 0 to 100 percent where 0 corresponds to no injury and 100 corresponds to complete kill.
# (§6) Colby's equation was used to determine the herbicidal effects expected from the mixtures (Colby, S. R. Calculation of the synergistic and antagonistic response of herbicide combinations. Weeds 1967, 15, 20-22). More specifically, the following equation was used to calculate the expected activity of mixtures containing two active ingredients, A and B: Expected=A+B−(A×B/100) A=observed efficacy of active ingredient A at the same concentration as used in the mixture; B=observed efficacy of active ingredient B at the same concentration as used in the mixture.
# [3] = system: BRSNW Brassica napus (winter oilseed rape); assay: Postemergent herbicidal activity, greenhouse; conditions: foliar, 14 d
# Experimental: as §2, §3, §4, §5, §6
# [4] = system: CIRAR Cirsium arvense (L.) Scop. (Canada thistle); assay: Postemergent herbicidal activity, greenhouse; conditions: foliar, 14 d
# Experimental: as §2, §3, §4, §5, §6
# [5] = system: POLCO Polygonum convolvulus L. (wild buckwheat); assay: Postemergent herbicidal activity, greenhouse; conditions: foliar, 14 d
# Experimental: as §2, §3, §4, §5, §6
# [6] = system: SETFA Setaria faberi Herrm. (giant foxtail); assay: Postemergent herbicidal activity, greenhouse; conditions: foliar, 14 d
# Experimental: as §2, §3, §4, §5, §6
# [7] = system: POAAN Poa annua (annual bluegrass); assay: Field trial, visual weed control in winter oilseed rape
# Experimental: as §1, with “Application water volume was 150 L/ha.” left out, “means. […] The following abbreviations are used in Tables 2-4: • GERSS Geranium sp. (cranesbill) • POAAN Poa annua (annual bluegrass) • VERSS Veronica sp.” for “means.”
# [8] = system: GERSS Geranium sp. (cranesbill); assay: as above
# Experimental: as §1, with “Application water volume was 150 L/ha.” left out, “means. […] The following abbreviations are used in Tables 2-4: • GERSS Geranium sp. (cranesbill) • POAAN Poa annua (annual bluegrass) • VERSS Veronica sp.” for “means.”
# [9] = system: VERSS Veronica sp. (speedwell); assay: as above
# Experimental: as §1, with “Application water volume was 150 L/ha.” left out, “means. […] The following abbreviations are used in Tables 2-4: • GERSS Geranium sp. (cranesbill) • POAAN Poa annua (annual bluegrass) • VERSS Veronica sp.” for “means.”
smiles,measurement,setting,value
"COC(=O)c1nc(-c2ccc(Cl)c(OC)c2F)cc(N)c1Cl [Cmpd I, methyl ester of 4-amino-3-chloro-6-(4-chloro-2-fluoro-3-methoxyphenyl)pyridine-2-carboxylic acid]",Visual crop injury rating,[1],0 % injury
same,"% control rated visually, ob (observed)",[2]; Cmpd I 2.5 g ae/ha,87%
same,"% control rated visually, ob (observed)",[2]; Cmpd I 5 g ae/ha,85%
same,"% control rated visually, ob (observed)",[2]; Cmpd I 10 g ae/ha,90%
same,"% control rated visually, ob (observed)",[3]; Cmpd I 2.5 g ae/ha,0%
same,"% control rated visually, ob (observed)",[3]; Cmpd I 5 g ae/ha,0%
same,"% control rated visually, ob (observed)",[3]; Cmpd I 10 g ae/ha,10%
same,"% control rated visually, ob (observed)",[4]; Cmpd I 2.5 g ae/ha,47%
same,"% control rated visually, ob (observed)",[4]; Cmpd I 5 g ae/ha,53%
same,"% control rated visually, ob (observed)",[4]; Cmpd I 10 g ae/ha,65%
same,"% control rated visually, ob (observed)",[5]; Cmpd I 2.5 g ae/ha,35%
same,"% control rated visually, ob (observed)",[5]; Cmpd I 5 g ae/ha,25%
same,"% control rated visually, ob (observed)",[5]; Cmpd I 10 g ae/ha,48%
same,"% control rated visually, ob (observed)",[6]; Cmpd I 2.5 g ae/ha,0%
same,"% control rated visually, ob (observed)",[6]; Cmpd I 5 g ae/ha,5%
same,"% control rated visually, ob (observed)",[6]; Cmpd I 10 g ae/ha,35%
same,"% control rated visually, ob (observed)","[7]; Cmpd I 1.25 g ae/ha, 32 DAAA",7.5%
same,"% control rated visually, ob (observed)","[7]; Cmpd I 1.25 g ae/ha, 58 DAAA",11.3%
same,"% control rated visually, ob (observed)","[7]; Cmpd I 1.25 g ae/ha, 80 DAAA",16.3%
same,"% control rated visually, ob (observed)","[7]; Cmpd I 2.5 g ae/ha, 32 DAAA",10.0%
same,"% control rated visually, ob (observed)","[7]; Cmpd I 2.5 g ae/ha, 58 DAAA",15.0%
same,"% control rated visually, ob (observed)","[7]; Cmpd I 2.5 g ae/ha, 80 DAAA",15.0%
same,"% control rated visually, ob (observed)","[7]; Cmpd I 5 g ae/ha, 32 DAAA",6.3%
same,"% control rated visually, ob (observed)","[7]; Cmpd I 5 g ae/ha, 58 DAAA",12.5%
same,"% control rated visually, ob (observed)","[7]; Cmpd I 5 g ae/ha, 80 DAAA",6.3%
same,"% control rated visually, ob (observed)","[7]; Cmpd I 7.5 g ae/ha, 32 DAAA",28.8%
same,"% control rated visually, ob (observed)","[7]; Cmpd I 7.5 g ae/ha, 58 DAAA",28.8%
same,"% control rated visually, ob (observed)","[7]; Cmpd I 7.5 g ae/ha, 80 DAAA",18.8%
same,"% control rated visually, ob (observed)","[8]; Cmpd I 1.25 g ae/ha, 32 DAAA",42.5%
same,"% control rated visually, ob (observed)","[8]; Cmpd I 1.25 g ae/ha, 58 DAAA",62.5%
same,"% control rated visually, ob (observed)","[8]; Cmpd I 1.25 g ae/ha, 80 DAAA",53.8%
same,"% control rated visually, ob (observed)","[8]; Cmpd I 2.5 g ae/ha, 32 DAAA",42.5%
same,"% control rated visually, ob (observed)","[8]; Cmpd I 2.5 g ae/ha, 58 DAAA",57.5%
same,"% control rated visually, ob (observed)","[8]; Cmpd I 2.5 g ae/ha, 80 DAAA",67.5%
same,"% control rated visually, ob (observed)","[8]; Cmpd I 5 g ae/ha, 32 DAAA",89.3%
same,"% control rated visually, ob (observed)","[8]; Cmpd I 5 g ae/ha, 58 DAAA",77.5%
same,"% control rated visually, ob (observed)","[8]; Cmpd I 5 g ae/ha, 80 DAAA",69.5%
same,"% control rated visually, ob (observed)","[8]; Cmpd I 7.5 g ae/ha, 32 DAAA",91.3%
same,"% control rated visually, ob (observed)","[8]; Cmpd I 7.5 g ae/ha, 58 DAAA",91.3%
same,"% control rated visually, ob (observed)","[8]; Cmpd I 7.5 g ae/ha, 80 DAAA",99.8%
same,"% control rated visually, ob (observed)","[9]; Cmpd I 1.25 g ae/ha, 32 DAAA",10.0%
same,"% control rated visually, ob (observed)","[9]; Cmpd I 1.25 g ae/ha, 80 DAAA",80.0%
same,"% control rated visually, ob (observed)","[9]; Cmpd I 2.5 g ae/ha, 32 DAAA",26.3%
same,"% control rated visually, ob (observed)","[9]; Cmpd I 2.5 g ae/ha, 80 DAAA",97.5%
same,"% control rated visually, ob (observed)","[9]; Cmpd I 5 g ae/ha, 32 DAAA",45.0%
same,"% control rated visually, ob (observed)","[9]; Cmpd I 5 g ae/ha, 80 DAAA",100.0%
same,"% control rated visually, ob (observed)","[9]; Cmpd I 7.5 g ae/ha, 32 DAAA",81.3%
same,"% control rated visually, ob (observed)","[9]; Cmpd I 7.5 g ae/ha, 80 DAAA",100.0%
